The values below come from PubChem BioAssay (NCI).

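Interpolation was linear, between the two tested concentrations surrounding the appropriate level; five concentrations were tested over 48 hours in 96-well plates. Here, GI50 denotes the concentration required for 50% inhibition of growth. TGI denotes the concentration required for complete inhibition of growth.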

What all share (experiment): inhibition of tumour cell growth, NCI panel, 48 h
Test [1] relates to HCT-116 colon.
For test [2], the system named is K-562 leukemia.
For test [3], the system named is NCI-H23 lung.
In test [4] the test system is OVCAR-5 ovarian.
Test [5] deals with OVCAR-8 ovarian.
Test [6] relates to SK-MEL-5 melanoma.
Test [7] concerns SR leukemia.
Test [8] deals with SW-620 colon.
The subject of test [9] is TK-10 renal.
The test system of test [10] is NCI/ADR-RES ovarian.

Consider `CN(C)c1n/c(=N/c2ncn[nH]2)ss1`, for which the TGI in test [1], in test [2], in [3], in test [4], in test [5] and in test [6] was > 100 µM in each case. The TGI in [7], in test [8] and in [9] was > 100 µM throughout.

On to `Nc1nnc(Cn2c(-c3ccccc3)nc3ccc(Br)cc3c2=O)s1`, for which the GI50 is 13.6 µM in test [1]; 40.8 µM in [3]; 41.2 µM in test [10]; > 100 µM in test [4]; 1.25 µM in test [5]; 26.8 µM in test [6]. Further, the GI50 in test [8] was 36.1 µM; in test [9], 32 µM. The TGI in test [1] was 50.3 µM; in [3], > 100 µM; in test [10], > 100 µM; in test [4], > 100 µM; in [5], 41 µM; in test [6] it was 86.2 µM. Further, the TGI in [8] is > 100 µM; in [9], 83.9 µM.

In the case of `COc1ccc(-c2ccc(/C=N/n3c(C)nn(CN4CCN(C)CC4)c3=S)o2)c([N+](=O)[O-])c1`, the GI50 was 21.7 µM in [1]; 16.2 µM in [2]; 26.1 µM in [3]; 21.6 µM in [10]; 62.6 µM in test [4]; > 100 µM in [8]. In addition, the GI50 in test [9] was 24.3 µM. For the same molecule, the TGI is 57.8 µM in test [1]; 42.4 µM in [2]; 92.5 µM in test [3]; 50.5 µM in test [10]; > 100 µM in test [4]; > 100 µM in test [8]. Also, the TGI in test [9] stood at 74.7 µM.

`Cn1c2c(c3ccccc31)CCN(CCCCN1CCN(c3cccc(Cl)c3)CC1)C2=O`: the TGI in [1] was found to be 19.4 µM; in test [2], 27.6 µM; in [3], 27.4 µM; in test [4] it was 16.9 µM; in [5], 48 µM; in test [6], 21.8 µM. Besides, the figures for the TGI in test [8] and in [9] were 26.4 µM and 25.1 µM, respectively.

Consider `c1ccc(COCC2OC3c4ccccc4COC3C2OCc2ccccc2)cc1` (stereo not drawn), for which the TGI in test [1], in test [2], in test [3], in test [4], in test [5] and in [6] was > 100 µM in each case. For the same molecule, the TGI in [7], in test [8] and in test [9] was > 100 µM throughout.

With `O=C1C2c3[nH]c4ccccc4c3[C@@H]3CCCCC3C2C(=O)N1c1ccccc1` (stereo partly drawn), the TGI in [2] was > 100 µM; in test [3] it was 39.2 µM; in [4] it was 51.8 µM; in test [5] it was 52.9 µM; in test [6] it was 32.1 µM; in [7], 77.8 µM. Moreover, the TGI in test [8] is 38.8 µM; in test [9], 68.7 µM.

Regarding `Cc1cc(C)c(S(=O)(=O)ONC(=O)OC(C)(C)C)c(C)c1`, the TGI in test [1], in test [2], in test [3], in test [4], in test [5] and in test [6] was > 100 µM throughout. Moreover, the TGI in [8] and in test [9] was > 100 µM each time.

For the molecule `COC(OC)[C@@H](C)[C@H](O)[C@](C)(O)C1OC(C)(C)OC(C(C)C=C(C)C)C1C` (stereo partly drawn), the TGI in [1], in [2], in test [3], in [4], in [5] and in test [6] was > 100 µM in each case. The TGI in test [7], in test [8] and in test [9] was > 100 µM in each case.

As to `CCOC(=O)NC(=O)c1cn(CCN2CCN(C(=O)CCCCCCCCCCNc3ncnc4nc[nH]c34)CC2)c(=O)[nH]c1=O`, the TGI in test [1], in test [2], in [3], in [4], in test [5] and in test [6] was > 100 µM in each case. For the same molecule, the TGI in test [7], in test [8] and in test [9] was > 100 µM in each case.

Regarding `CNCCCNc1nc2ccccc2c2c(=O)c3cc(Cl)ccc3sc12`, the GI50 was 1.61 µM in [3]; 1.62 µM in [4]; 2.13 µM in test [6]; 1.62 µM in [8]; 1.99 µM in test [9]. Also, the TGI came out at 3.18 µM in test [3]; 3.03 µM in test [4]; 5.25 µM in [6]; 3.09 µM in test [8]; 3.48 µM in [9].

For the molecule `CCC(C(=O)[O-])C(=O)[O-].CCC(C(=O)[O-])C(=O)[O-].N.N.NCCCCCCN.[Pt+4].[Pt+4]`, the GI50 in [1] was 5.59 µM; in test [2], 1.79 µM; in [3] it was 9.84 µM; in [4], 10.7 µM; in test [5], 11.5 µM; in [6], 3.35 µM. Further, the GI50 in test [7] was 6.11 µM; in [8] it was 0.9 µM; in [9], 8.23 µM. Besides, the TGI stood at 14 µM in test [1]; 10.3 µM in [2]; 24.5 µM in test [3]; 19.7 µM in [4]; 28.1 µM in [5]; 9.46 µM in [6]. Further, the values for the TGI in test [7], in test [8] and in [9] were 35.4 µM, 1.71 µM and 15.1 µM, respectively.

`OC(c1ccccn1)C1CNc2ccccc21` (stereo not drawn): the TGI in [1], in test [2], in test [3], in test [4], in test [5] and in test [6] was > 100 µM in each case. Moreover, the TGI in test [8] and in test [9] was > 100 µM each time.

As for `Cc1ccc2[nH]c3c(ncc4[nH]c5ccccc5c43)c2c1`, the TGI in test [1] is 30.8 µM; in test [2], 30.2 µM; in [3], > 10 µM; in [4], 30.8 µM; in test [5], 35.9 µM; in test [8], 26.7 µM. Moreover, the TGI in test [9] is 37.6 µM.
